Results taken from patent US11147272B2, “Pyridone compounds and agricultural and horticultural fungicides comprising the same as active ingredients” (MITSUI CHEMICALS AGRO, INC., priority 2017, dated 2021).

Key:
[1] = test system: Puccinia recondita; assay: Test Example E: Brown rust on wheat; format: in vivo
[2] = test system: Magnaporthe grisea; assay: whole plant or invertebrate; format: in vivo; conditions: for Test A control value class: class of control value
[3] = test system: Blumeria graminis f. sp. hordei; assay: Test Example D: Powdery mildew on barley; conditions: for Test D control value class: class of control value
[4] = test system: Colletotrichum orbiculare; assay: Test Example H: Anthracnose on cucumber; conditions: for Test H control value: 6 to 10 days after inoculation; for Test H control value class: Anthracnose on cucumber (Sagami Hanjiro), 2.5 ml/pot, assessed 6 to 10 days after inoculation
[5] = test system: Phytophthora infestans; assay: whole plant or invertebrate; format: in vivo; conditions: for Test F control value class: class of control value
[6] = test system: Plasmopara viticola; assay: Test Example G: Downy mildew on vine; conditions: for Test G control value: 7 to 10 days after inoculation; for Test G control value class: Downy mildew on vine (Neomuscat), 2.5 ml/pot, assessed 7 to 10 days after inoculation
[7] = test system: Botrytis cinerea; assay: Test Example B: Gray mold on tomato; conditions: for Test B control value class: class of control value
[8] = test system: Alternaia brassicicola; assay: Test Example C: Alternaria sooty spot on cabbage; format: in vivo
Description: Seeds of a test plant (cabbage variety: Shikidori) were planted and cultivated until the cotyledons extended.
<Control Value> Control value=100{1−(n/3)}

[9] = Brown rust on wheat, control value class
[10] = Blast on rice, control value class
[11] = Powdery mildew on barley, control value class
[12] = Anthracnose on cucumber, 250 ppm spray
[13] = Late blight on tomato, control value class
[14] = Downy mildew on vine, 250 ppm spray
[15] = Gray mold on tomato, control value class
[16] = Alternaria sooty spot on cabbage, control value class
[17] = Brown rust on wheat, class of control value
[18] = Alternaria sooty spot on cabbage, class of control value
[19] = 250 ppm drug solution sprayed on test plant
[20] = 250 ppm drug solution sprayed (2.5 ml/pot), cucumber Sagami Hanjiro
[21] = 250 ppm drug solution sprayed (2.5 ml/pot), grape Neomuscat

Structure (SMILES) | Test E control value [1, 9] | Test A control value [2, 10] | Test D control value [3, 11] | Test H control value [4, 12] | Test F control value [5, 13] | Test G control value [6, 14] | Test B control value [7, 15] | Test C control value [8, 16] | Test E control value [1, 19] | Test A control value [2, 19] | Test D control value [3, 19] | Test H control value [4, 20] | Test F control value [5, 19] | Test G control value [6, 21] | Test B control value [7, 19] | Test C control value [8, 19] | also measured
CCCOC(C)(c1cc(Cl)c(=O)n(CC)c1-c1c(F)cc(F)cc1F)C1CCCC1 (centres unmarked) [compound 257] | L (50% or less control value) | L (50% or less control value) | L (50% or less control value) | H (more than 50% control value) | L (50% or less control value) | L (50% or less control value) | L (50% or less control value) | H (more than 50% control value) | – | – | – | – | – | – | – | – | –
CCCc1ccc(=O)n(CC)c1-c1ccc(OC)cc1Br [compound 370] | H (more than 50% control value) | L (50% or less control value) | H (more than 50% control value) | H (more than 50% control value) | H (more than 50% control value) | H (more than 50% control value) | H (more than 50% control value) | H (more than 50% control value) | – | – | – | – | – | – | – | – | –
CCn1c(-c2c(F)cc(F)cc2F)c(C(=O)C(C)C)cc(Cl)c1=O [compound 66] | – | – | – | – | – | – | – | – | – | – | – | – | – | – | – | – | Test E control value class [1, 17]: H (more than 50% control value); Test A control value class ([2]; Blast on rice): H (more than 50% control value); Test D control value class ([3]; Powdery mildew on barley): H (more than 50% control value); Test H control value class ([4]; 250 ppm spray): H (more than 50% control value); Test F control value class ([5]; Late blight on tomato): L (50% or less control value); Test G control value class ([6]; 250 ppm spray): L (50% or less control value); Test B control value class ([7]; Gray mold on tomato): H (more than 50% control value); Test C control value class [8, 18]: H (more than 50% control value)
CCn1c(-c2c(F)cccc2F)c(CO)cc(Cl)c1=O [compound 44] | – | – | – | – | – | – | – | – | – | – | – | – | – | – | – | – | Test E control value class [1, 17]: H (more than 50% control value); Test A control value class ([2]; Blast on rice): L (50% or less control value); Test D control value class ([3]; Powdery mildew on barley): L (50% or less control value); Test H control value class ([4]; 250 ppm spray): L (50% or less control value); Test F control value class ([5]; Late blight on tomato): L (50% or less control value); Test G control value class ([6]; 250 ppm spray): L (50% or less control value); Test B control value class ([7]; Gray mold on tomato): H (more than 50% control value); Test C control value class [8, 18]: H (more than 50% control value)
CCCc1cc(I)c(=O)n(CC(F)F)c1-c1c(F)cc(F)cc1F [compound 473] | – | – | – | – | – | – | – | – | H (more than 50% control value) | H (more than 50% control value) | H (more than 50% control value) | L (50% or less control value) | L (50% or less control value) | L (50% or less control value) | H (more than 50% control value) | H (more than 50% control value) | –
CCCCCCCCCc1cc(Cl)c(=O)n(CC)c1-c1ccc(F)cc1Cl [compound 274] | L (50% or less control value) | L (50% or less control value) | H (more than 50% control value) | L (50% or less control value) | L (50% or less control value) | L (50% or less control value) | L (50% or less control value) | L (50% or less control value) | – | – | – | – | – | – | – | – | –
CCc1cc(Br)c(=O)n(CC)c1-c1ccc(F)cc1Br [compound 343] | H (more than 50% control value) | H (more than 50% control value) | H (more than 50% control value) | H (more than 50% control value) | L (50% or less control value) | H (more than 50% control value) | H (more than 50% control value) | H (more than 50% control value) | – | – | – | – | – | – | – | – | –
CCn1c(-c2c(F)cc(OC)cc2F)c(C(C)(OC)C(C)C)cc(Br)c1=O (centres unmarked) [compound 467] | – | – | – | – | – | – | – | – | H (more than 50% control value) | H (more than 50% control value) | H (more than 50% control value) | H (more than 50% control value) | L (50% or less control value) | H (more than 50% control value) | H (more than 50% control value) | H (more than 50% control value) | –
CCc1ccc(=O)n(C)c1-c1ccc(OC)cc1C [compound 367] | L (50% or less control value) | L (50% or less control value) | H (more than 50% control value) | H (more than 50% control value) | L (50% or less control value) | L (50% or less control value) | L (50% or less control value) | L (50% or less control value) | – | – | – | – | – | – | – | – | –
CCn1c(-c2c(F)cc(F)cc2F)c(C#N)cc(Cl)c1=O [compound 230] | L (50% or less control value) | L (50% or less control value) | L (50% or less control value) | L (50% or less control value) | L (50% or less control value) | H (more than 50% control value) | L (50% or less control value) | L (50% or less control value) | – | – | – | – | – | – | – | – | –
CCn1c(-c2c(F)cccc2F)c(C(C)(F)CC)cc(Cl)c1=O (centres unmarked) [Compound No. 30, 3-chloro-6-(2,6-difluorophenyl)-1-ethyl-5-(2-fluorobutan-2-yl)pyridin-2(1H)-one] | – | – | – | – | – | – | – | – | – | – | – | – | – | – | – | – | pest or weed control at 250 µg/mL ([1]; Puccinia recondita, topical, Brown rust on wheat, class of control value, read-out: Test E control value class): > 50%; pest or weed control at 250 µg/mL ([2]; Pyricularia oryzae, in Oryza sativa, read-out: Test A control value class): > 50%; pest or weed control at 250 µg/mL ([3]; Blumeria graminis, in Hordeum vulgare, topical, read-out: Test D control value class): > 50%; pest or weed control at 250 ppm ([4]; Colletotrichum orbiculare, in Cucumis sativus, topical, read-out: Test H control value class): > 50%; pest or weed control at 250 µg/mL ([5]; Phytophthora infestans, in Solanum lycopersicum, topical, read-out: Test F control value class): < 50%; pest or weed control at 250 ppm ([6]; Plasmopara viticola, topical, read-out: Test G control value class): > 50%; pest or weed control at 250 µg/mL ([7]; Botrytis cinerea, in Solanum lycopersicum, topical, read-out: Test B control value class): > 50%; pest or weed control at 250 µg/mL ([8]; Brassica oleracea, topical, Alternaria sooty spot on cabbage, class of control value, read-out: Test C control value class): > 50%
CCCc1cc(I)c(=O)n(CC)c1-c1c(F)cc(F)cc1F [compound 434] | – | – | – | – | – | – | – | – | H (more than 50% control value) | H (more than 50% control value) | H (more than 50% control value) | H (more than 50% control value) | L (50% or less control value) | L (50% or less control value) | H (more than 50% control value) | H (more than 50% control value) | –
CCCc1cc(Cl)c(=O)n(CC(F)F)c1-c1c(F)cc(OC)cc1F [compound 475] | – | – | – | – | – | – | – | – | H (more than 50% control value) | H (more than 50% control value) | H (more than 50% control value) | H (more than 50% control value) | L (50% or less control value) | H (more than 50% control value) | H (more than 50% control value) | H (more than 50% control value) | –
